# Source: patent US8124069B2, “Immunogenic peptides” (Rush University Medical Center, priority 2002, dated 2012)
# “And” between values parts separate entries of the source, which are not always exact repeats. Equal values may be shown once.
# Columns and labels:
# [1] = molecular target: HLA-A2.1 (Homo sapiens, UniProt P04439, D140Y/D185E/D98H/E176V/E277Q/G131W/G231S/I119V/I121R/I166T/I218V/L300P/L318F/N151K/N90K/P208A/P217A/Q86G/Q94H/R138H/R169H/T345S); assay: Peptide binding to HLA-A2.1+ T2 cells under Brefeldin A treatment (peptide/HLA-A2.1 complex stability)
# [2] = tested on: HLA-A2.1 positive ML-2 cells; assay: Cytotoxicity of peptide-specific CTLs against ML-2 cells (51Cr release); assay type: cell-based, human; settings: for Cytotoxicity of peptide-specific CTLs against ML-2 cells (%): target:effector 1:60
# Description: The present example illustrates that that the present peptides are capable of inducing a T-lymphocyte response. In this example, antigen presenting cells were pulsed at 150 micrograms of each peptide per 1 million antigen presenting cells with the following amino acid sequences: […]
# [3] = tested on: dendritic cells; assay: Phenotypic analysis of dendritic cells matured with maturation factors; assay type: cell-based, human; settings: DCs matured during last three days of culture
# Experimental: Immature DCs were generated according to modified protocols of Romani et al. (1994) and Bakker et al. (1995). Briefly, fresh or frozen/thawed CD14+ cells were cultured in RPMI 1640 medium (Gibco-Life Technologies) supplemented with 10% FCS, 1,000 U/ml GM-CSF and 1,000 U/ml IL-4. The cell cultures were fed with fresh medium and GM-CSF and IL-4 every other day and cell differentiation was monitored by light microscopy. On day 7, the cultures were supplemented with different combinations of DC maturation factors such as lipopolysaccharide (100 U/ml), TNF-α (10 ng/ml), or IFN-α (1,000 U/ml) plus TNF-α (10 ng/ml). After three days of incubation, mature DCs (mDC) were harvested and evaluated for their phenotypes by flow cytometry. The maturation factor(s) yielding optimal DC maturation was determined and used to generate mDCs for peptide pulsing in upcoming studies. In this example, immature DCs obtained by the culture of CD 14+ monocytes with GM-CSF (1,000 U/ml) and IL-4 (1,000 U/ml) were induced to undergo maturation by incubation with LPS (100 Units/ml), TNF-α10 ng/ml) or TNF-α (10 ng/ml)+IFN-α50 ng/ml) during the final three days of the culture period. […] The highest up-regulation of the co-stimulatory (CD80 and CD86) and HLA-A2.1 MHC class I molecules was detected on DCs treated with TNF-α+IFN-α (Table 5).
# [4] = tested on: effector cells (T lymphocytes); settings: APC: T2; 2 stims
substance,measurement,setting,value
"ALISGDSPV (listed as Homo sapiens) [SEQ ID NO: 16, modified CD33 peptide]","binding to HLA-A2.1 on T2 cells, in words",[1],good and prolonged stable binding
same,immunogenicity in similar experiments,[2],immunogenic
TNF-α,"CD80 expression, mean channel fluorescence (MCF)",[3],107
same,"CD86 expression, mean channel fluorescence (MCF)",[3],96
same,"HLA-A2.1 expression, mean channel fluorescence (MCF)",[3],475
"YIISGDSPV (listed as Homo sapiens) [SEQ ID NO: 3, modified CD33 peptide]",Cytotoxicity of peptide-specific CTLs against ML-2 cells (%),"[2]; APC: DC, 2 stimulations, different donors",37%
"YIISGISPV (listed as Homo sapiens) [SEQ ID NO: 6, modified CD33 peptide]","binding to HLA-A2.1 on T2 cells, in words",[1],good and prolonged stable binding
YLALCLCLI (listed as Homo sapiens) [SEQ ID NO: 1],Cytotoxicity of peptide-specific CTLs against ML-2 cells (%),"[2]; APC: T2, 2 stimulations, donors F, G",21% and 34%
same,Cytotoxicity of peptide-specific CTLs against ML-2 cells (%),"[2]; APC: T2, 3 stimulations, donors F, G",36% and 64%
same,"Expression level of CD4 (T helper), mean fluorescence intensity",[4],81 and 57
same,"Expression level of CD45RO (Memory), mean fluorescence intensity",[4],1262 and 1432
same,"Expression level of CD95 (Activation), mean fluorescence intensity",[4],99 and 102
"YLISGDSPV (listed as Homo sapiens) [SEQ ID NO: 7, modified CD33 peptide]","binding to HLA-A2.1 on T2 cells, in words",[1],good and prolonged stable binding
